Measured values as given in patent publication US20230331707A1, “PROGRAMMED CELL NECROSIS INHIBITOR, PREPARATION METHOD THEREFOR, AND USE THEREOF” (Shanghai Institute of Organic Chemistry, Chinese Academy of …, priority 2020, published 2023).
Like-named read-outs stand apart in the source and are kept apart here.

Experiments:
[1] = Liver microsomal stability test, mouse; type: in vitro ADME; conditions: mouse liver microsomes, NADPH, 37° C.; for half-life at 1 µM: mouse, liver microsomes, read-out: T1/2 (min) Mouse
From the text: (§1) The adopted biological test protocol was: testing the half-life of the compound in human- or mouse-derived liver microsomes.
(§2) Liver microsomes contain many enzymes involved in drug metabolism, especially cytochrome P-450, and therefore it is one of the major tissues involved in drug metabolism in living organisms. There are some correlations between the stability of the compound in liver microsomes and the pharmacogenetic stability thereof in vivo. Therefore, the relative stability of compounds in vivo can be roughly predicted by testing the half-life of different compounds in human- or mouse-derived liver microsomes. The specific methods were as follows:
(§3) Methods: 0.75 μL of 0.5 mM samples (compounds to be tested and control verapamil), 9.38 μL of 20 mg/mL liver microsomes (Human and Mouse) were taken and added to 239.88 μL PBS (on ice), and divided into 30 μL/tube samples respectively. The samples were incubated at 37° C. in a constant temperature water bath for 5 min, and then all samples were taken out. At zero-time, control group was added with 90 μL of ice acetonitrile first, and then added with 15 μL of 3 mM NADPH solution sequentially, and incubated at 37° C. in a constant temperature water bath. The corresponding samples were taken out after 5 min, 10 min, 20 min, 30 min and 60 min, respectively, and quenched by adding 90 μL of ice acetonitrile. All samples were centrifuged at 10000 rpm for 10 min, and the supernatants were taken and placed in a liquid phase vial waiting for LC-MS analysis.

[2] = Liver microsomal stability test, human; type: in vitro ADME; conditions: human liver microsomes, NADPH, 37° C.; for half-life at 1 µM: human, liver microsomes, read-out: T1/2 (min) Human
From the text: as §1, §2, §3

FADD−/− Jurkat cells = experiment: Inhibition of TNF-induced programmed necrosis of FADD deficient Jurkat cells (Cell Titer-Glo viability); type: cell-based; conditions: FADD−/− Jurkat cells
From the text: (§4) The adopted biological assay protocol was: the effect of compounds on programmed necroptosis of TNF-induced FADD (Fas-Associated Death Domain) deficient Jurkat cells and L929 cells.
(§5) In order to verify the inhibitory effect of the compounds of the present invention on programmed cell necrosis at the cellular level, cell types that is closely related to the RIP1 pathway, namely FADD deficient Jurkat cells (human peripheral blood leukemia T cell strain) and L929 cells, were selected. Two different stimulation methods were used: tumor necrosis factor (TNFα) was used alone, or TNFα was used in combination with mitochondria-derived cysteine aspartate activator (SMAC) SM164. Cells viability was calculated by detecting chemiluminescence values, thereby obtaining the biological activity of the compound on the inhibition of programmed cell necrosis.
(§6) Methods: FADD deficient Jurkat cells: FADD deficient Jurkat cells (human peripheral blood leukemia T cell line) were cultured in vitro. After growing to the logarithmic growth phase, the cells were collected, centrifuged at 1000 rpm for 5 min, the supernatant was discarded, and the cell concentration was adjusted to 2.5×10^5/mL. Cells were seeded into 384-well plates, 40 μl per well. 5 μL of SM164 (50 nM) diluted in cell culture medium and 5 μL of each compound were added to the corresponding wells. After pretreatment at 37° C. for 1 h, 5 μL of TNFα (50 ng/mL) diluted in cell culture medium was added to each well of the stimulation group, and 5 μL of the culture medium was added to the control group. The plate was cultured in a cell incubator (37° C., 5% CO2) for 14 h, and […] of Cell Titer-Glo solution was added to each well, then incubated for 30 min at room temperature, and intracellular ATP level was measured by detecting luminescence. The unstimulated DMSO control wells were taken as 100% cell viability. L929 cells: The L929 cells (mouse fibroblasts) were cultured in vitro, digested and diluted to 6.25×10^4/ml, and the cells were seeded into 384-well plates, 40 μl per well. The plate was placed in a cell incubator (37° C., 5% CO2) for 12 hours. 5 μL of SM164 (500 nM) diluted in cell culture medium and 5 μL of each compound were added to the corresponding wells. After pretreatment at 37° C. for 1 h, 5 μL of TNFα (500 ng/mL) diluted in cell culture medium was added to each well of the stimulation group, and 5 μL of the culture medium was added to the control group. After the plate was cultured for 14 h in a cell incubator (37° C., 5% CO2), 15 μl of Cell Titer-Glo solution was added to each well. The plate was incubated at room temperature for 30 min, and intracellular ATP level was measured by detecting luminescence. The unstimulated DMSO control wells were taken as 100% cell viability. EC50 values of the compounds were calculated using Prism Graphpad statistical software.

L929 cells = experiment: Inhibition of TNF-induced programmed necrosis of L929 cells (Cell Titer-Glo viability); type: cell-based, mouse
From the text: as §4, §5, §6

[3] = Homo sapiens, Jurkat, 14 h, stimulated with TNFα + SM164, read-out: EC50 (μM) FADD−/− Jurkat cells (human) TNFα + SM164
[4] = Homo sapiens, Jurkat, stimulated with TNFα alone, read-out: EC50 (μM) FADD−/− Jurkat cells (human) TNFα
[5] = Mus musculus, L929, L929 cells, stimulated with TNFα + SM164, read-out: EC50 (μM) L929 cells (mouse) TNFα + SM164
[6] = Mus musculus, L929, L929 cells, stimulated with TNFα alone, read-out: EC50 (μM) L929 cells (mouse) TNFα
[7] = L929 cells, stimulated with TNFα + SM164, read-out: EC50 (μM) L929 cells (mouse) TNFα + SM164
[8] = L929 cells, stimulated with TNFα alone, read-out: EC50 (μM) L929 cells (mouse) TNFα
[9] = stimulated with TNFα + SM164, read-out: EC50 (μM) FADD−/− Jurkat cells (human) TNFα + SM164

Row | Structure (SMILES) | half-life at 1 µM [1] [min] | half-life at 1 µM [2] [min] | EC50 (FADD−/− Jurkat cells; [3]) [nM] | EC50 (FADD−/− Jurkat cells; [4]) [nM] | EC50 (L929 cells; [5]) [µM] | EC50 (L929 cells; [6]) [µM] | T1/2 (min) Mouse [1] [min] | T1/2 (min) Human [2] [min] | EC50 (L929 cells; [7]) [µM] | EC50 (L929 cells; [8]) [µM] | EC50 (FADD−/− Jurkat cells; [9]) [nM] | EC50 (FADD−/− Jurkat cells; stimulated with TNFα alone, read-out: EC50 (μM) FADD−/− Jurkat cells (human) TNFα) [nM]
1 | Nc1ncnc2c1ncn2-c1ccc(CNC(=O)c2cn(Cc3ccccc3)cn2)cc1 [ZSQ-21-13] | 99 | 577 | 39 | 42.7 |  |  |  |  |  |  |  | 
2 | Nc1ncnc2c1ccn2-c1ccc(CN2CCc3cn(Cc4ccccc4)nc3C2=O)cc1 [QY-9-41] | 36.5 | 38.5 | 234 | 21.5 | > 10 | > 10 |  |  |  |  |  | 
3 | CCn1nc(C(=O)NCc2ccc(-n3ccc4c(N)ncnc43)cc2)cc1Cc1ccccc1 [QY-9-33] | 11.2 | 9.6 | 1040 | 3.77 | > 10 | > 10 |  |  |  |  |  | 
4 | CNC(=O)c1ccc2c(c1)ncn2-c1ccc(CN2CCc3cn(Cc4ccccc4)nc3C2=O)cc1 [QY-8-7] | 12.2 | 46.2 | 37.8 | 10.8 | > 10 | 3 |  |  |  |  |  | 
5 | CNC(=O)c1ccc2c(c1)ncn2-c1ccc(CNC(=O)c2cc(Cc3ccccc3)on2)cc1 [QY-6-16, 5-Benzyl-N-(4-(5-(methylcarbamoyl)-1H-benzo[d]imidazol-1-yl)benzyl) isoxazol-3-formamide] | 24.8 | 21.7 | 113 | 8.1 | 3.35 | 2.14 |  |  |  |  |  | 
6 | CCn1nc(C(=O)NCc2ccc(-n3cnc4c(N)ncnc43)cc2)cc1Cc1ccccc1 [QY-9-34] | 13.9 | 14.7 | 3.52 | 0.416 | > 10 | 8.36 |  |  |  |  |  | 
7 | Nc1ncnc2c1ncn2-c1ccc(CNC(=O)c2ccc(Cl)n2Cc2ccccc2)cc1 [ZSQ-21-18] | 30.1 | 8.6 | 80.6 | 6.57 |  |  |  |  |  |  |  | 
8 | Cn1ncc(C(=O)NCc2ccc(-n3cnc4cc(C(=O)NCCN5CCOCC5)ccc43)cc2)c1Cc1ccccc1 [QY-11-68B] | 34.7 |  | 2.96 | 0.696 | 0.0834 | 0.0205 |  |  |  |  |  | 
9 | CNC(=O)c1ccc2c(c1)ncn2-c1ccc(CNC(=O)c2noc(Cc3ccccc3)n2)cc1 [QY-7-14, 5-Benzyl-N-(4-(5-(methylcarbamoyl)-1H-benzo[d]imidazol-1-yl)benzyl)-1,2,4-oxadiazol-3-carboxamide] | 77 | 13.9 | 180 | 24.3 | 4.74 | 0.962 |  |  |  |  |  | 
10 | Cn1ncc(C(=O)NCc2ccc(-n3cnc4c(N)ncnc43)cc2)c1Cc1ccccc1 [QY-11-78] |  |  |  | 0.036 |  |  | 23.9 | 12.6 | 0.0232 | 0.00987 | 0.689 | 
11 | CNC(=O)c1ccc2c(c1)ncn2-c1ccc(CNC(=O)c2nnn(Cc3ccccc3)n2)cc1 [ZSQ-13-36] | 99 | 99 | 150 | 24 | 4.31 | 1.11 |  |  |  |  |  | 
12 | Nc1ncnc2c1ncn2-c1ccc(CN2CCc3cn(Cc4ccccc4)nc3C2=O)cc1 [QY-9-50] | 116 | 86.6 | 12.1 | 0.191 | 2.73 | 1.39 |  |  |  |  |  | 
13 | Cn1ncc(C(=O)NCc2ccc(-n3ccc4c(N)ncnc43)cc2)c1Cc1ccccc1 [QY-10-39, N-(4-(4-amino-7H-pyrrolo[2,3-d]pyrimidine-7-yl)benzyl)-5-benzyl-1-methyl-1H-pyrazole-4-carboxamide] | 25.7 |  | 2.95 | 0.07 | 0.0961 | 0.01 |  |  |  |  |  | 
14 | CN1CCN(CCNC(=O)c2ccc3c(c2)ncn3-c2ccc(CNC(=O)c3cnn(C)c3Cc3ccccc3)cc2)CC1 [QY-11-69B] | 46.2 | 43.3 | 6.33 | 0.984 | 0.00108 | 0.000563 |  |  |  |  |  | 
15 | Cn1nc(C(=O)NCc2ccc(-n3cnc4c(N)ncnc43)cc2)cc1Cc1ccccc1 [QY-8-43, N-(4-(6-amino-9H-purin-9-yl)benzyl)-5-benzyl-1-methyl-1H-pyrazole-3-carboxamide] | 23.9 | 38.5 |  |  |  |  |  |  | 0.152 | 0.0111 | 17.7 | 2.85
16 | Cn1ncc(C(=O)NCc2ccc(-n3cnc4ccc(C(=O)NCCN5CCOCC5)cc43)cc2)c1Cc1ccccc1 [QY-11-68A] |  |  | 3.79 | 0.581 | 0.00158 | 0.161 |  |  |  |  |  | 
17 | CNC(=O)c1ccc2c(c1)ncn2-c1ccc(CNC(=O)c2cc(Cc3ccccc3)n(C)n2)cc1 [QY-7-2B, 1-(4-((5-benzyl-1-methyl-1H-pyrazole-3-carboxamido)methyl)phenyl)-N-methyl-1H-benzo[d]imidazol-5-carboxamide] |  |  | 43.9 | 5.12 | 2.02 | 0.312 |  |  |  |  |  | 
